The numbers were not newly measured in patent publication US20110038945A1, “Orally ingestable medicament and method for treating a heartburn inducing event or an acid reflux episode in a living human subject” (priority 2009, published 2011), which cites them from elsewhere.

Molecules are shown by their SMILES.

As to `COc1cc(N)c(Cl)cc1C(=O)NC1CCN(CCCOc2ccc(F)cc2)CC1OC` (centres unmarked) [cisapride], for the setting “included in the heart rhythm abnormality reports”, the deaths result is “more than 80 deaths”. In addition, under “linked to the drug at recall from the U.S. market in 2000”, the “reports of heart rhythm abnormalities” value is listed as “more than 300 reports”.
